Assay results published in ChEMBL document CHEMBL4354827, “Discovery of Novel, Potent, Brain-Permeable, and Orally Efficacious Positive Allosteric Modulator of α7 Nicotinic Acetylcholine Receptor [4-(5-(4-Chlorophenyl)-4-methyl-2-propionylthiophen-3-yl)benzenesulfonamide]: Structure-Activity Relationship and Preclinical Characterization” (J Med Chem, 2020).

Experiments:
[1] = Unbound brain-to-plasma concentration ratio in Wistar rat at 10 mg/kg, po after 8 hrs by LC-MS/MS analysis; assay type: ADME, organism-based; conditions: read-out: K(p,uu,brain)
[2] = Drug concentration in Wistar rat plasma at 10 mg/kg, po after 8 hrs by LC-MS/MS analysis; assay type: ADME, organism-based
Cytochrome P450 2A6 = target: T1, Cytochrome P450 2A6 (Homo sapiens, UniProt P11509); experiment: Inhibition of CYP2A6 (unknown origin) up to 10 uM; assay type: ADME
T1 sequence (P11509 whole entry): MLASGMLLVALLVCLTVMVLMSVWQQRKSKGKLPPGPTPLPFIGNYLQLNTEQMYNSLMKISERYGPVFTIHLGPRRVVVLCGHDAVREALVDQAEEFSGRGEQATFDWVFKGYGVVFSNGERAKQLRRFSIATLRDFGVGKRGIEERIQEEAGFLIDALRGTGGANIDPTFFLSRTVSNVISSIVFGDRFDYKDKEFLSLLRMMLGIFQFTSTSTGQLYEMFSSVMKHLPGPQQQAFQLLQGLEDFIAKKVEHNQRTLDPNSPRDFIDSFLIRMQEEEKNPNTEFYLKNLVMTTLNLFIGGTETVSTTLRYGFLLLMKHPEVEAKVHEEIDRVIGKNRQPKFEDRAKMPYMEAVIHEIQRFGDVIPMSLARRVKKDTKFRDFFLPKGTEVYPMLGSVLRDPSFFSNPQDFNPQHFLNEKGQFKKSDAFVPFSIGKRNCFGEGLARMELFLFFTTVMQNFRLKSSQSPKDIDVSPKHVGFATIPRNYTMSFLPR

[3] = Tmax in Beagle dog at 1 mg/kg, iv after 0.083 to 144 hrs by LC-MS/MS analysis; assay type: ADME, organism-based, Canis lupus familiaris; conditions: in vivo
Rattus norvegicus [4] = experiment: Memory enhancement effect in scopolamine-induced Wistar rat model of amnesia assessed as exploration time for novel object in retention trial at 0.5 mg/kg, po for 7 days and measured on day 8 by novel object recognition test (reference value: 12.09 sec); assay type: functional
[5] = Drug metabolism in human pooled liver microsomes assessed as metabolic rate at 1 uM preincubated for 5 mins followed by NADPH addition after 30 mins by LC-MS/MS analysis; assay type: ADME, Microsome; conditions: 0.5 h
[6] = Protein binding in human plasma at 5 uM incubated for 16 hrs under shaking condition by LC/MS/MS based rapid equilibrium dialysis method; assay type: ADME, cell-free; conditions: read-out: PPB (converted)
[7] = Clearance in BALB/c mouse at 1 mg/kg, iv after 0.083 to 144 hrs by LC-MS/MS analysis; assay type: ADME, organism-based; conditions: in vivo
Rattus norvegicus [8] = experiment: Memory enhancement effect in time-delay induced Wistar rat model of amnesia assessed as exploration time for familiar object in retention trial at 1 mg/kg, po administered as single dose and measured on day 9 by novel object recognition test (reference value: 13.05 sec); assay type: functional
Rattus norvegicus [9] = experiment: Memory enhancement effect in scopolamine-induced Wistar rat model of amnesia assessed as exploration time for object2 in acquisition trial at 0.05 mg/kg, po administered as single dose and measured on day 8 by novel object recognition test (reference value: 15.63 sec); assay type: functional
[10] = Drug level in scopolamine-induced Sprague-Dawley rat brain at 0.5 mg/kg, po for 7 days; assay type: ADME, organism-based; conditions: read-out: Drug uptake
[11] = Drug level in Sprague-Dawley rat plasma at 0.05 mg/kg, po for 7 days; assay type: ADME, organism-based
[12] = Half life in Beagle dog at 1 mg/kg, iv after 0.083 to 144 hrs by LC-MS/MS analysis; assay type: ADME, organism-based, Canis lupus familiaris; conditions: in vivo
Rattus norvegicus [13] = experiment: Memory enhancement effect in time-delay induced Wistar rat model of amnesia assessed as exploration time for object1 in acquisition trial at 0.15 mg/kg, po for 7 days and measured on day 8 by novel object recognition test (reference value: 13.73 sec); assay type: functional
[14] = Brain to plasma permeability coefficient, Kp in Wistar rat at 10 mg/kg, po after 24 hrs by LC-MS/MS analysis; assay type: ADME, organism-based
Rattus norvegicus [15] = experiment: Improvement in social recognition time delay-induced Sprague-Dawley rat model of amnesia assessed as increase in reduction in social investigation time at 3 mg/kg, po administered as single dose prior to 1 hr training and measured after 30 mins (reference value: 0.39%); assay type: functional; set-up: scale not given: the % may be the effect or the level left
[16] = Drug concentration in Wistar rat plasma at 10 mg/kg, po after 24 hrs by LC-MS/MS analysis; assay type: ADME, organism-based
Rattus norvegicus [17] = experiment: Memory enhancement effect in scopolamine-induced Wistar rat model of amnesia assessed as exploration time for object1 in acquisition trial at 0.05 mg/kg, po administered as single dose and measured on day 8 by novel object recognition test (reference value: 16.11 sec); assay type: functional
[18] = AUC(0 to infinity) in human at 7.5 to 100 mg; assay type: ADME
Cytochrome P450 2B6 = target: T2, Cytochrome P450 2B6 (Homo sapiens, UniProt P20813); experiment: Inhibition of CYP2B6 (unknown origin) up to 10 uM; assay type: ADME
T2 sequence (P20813 whole entry): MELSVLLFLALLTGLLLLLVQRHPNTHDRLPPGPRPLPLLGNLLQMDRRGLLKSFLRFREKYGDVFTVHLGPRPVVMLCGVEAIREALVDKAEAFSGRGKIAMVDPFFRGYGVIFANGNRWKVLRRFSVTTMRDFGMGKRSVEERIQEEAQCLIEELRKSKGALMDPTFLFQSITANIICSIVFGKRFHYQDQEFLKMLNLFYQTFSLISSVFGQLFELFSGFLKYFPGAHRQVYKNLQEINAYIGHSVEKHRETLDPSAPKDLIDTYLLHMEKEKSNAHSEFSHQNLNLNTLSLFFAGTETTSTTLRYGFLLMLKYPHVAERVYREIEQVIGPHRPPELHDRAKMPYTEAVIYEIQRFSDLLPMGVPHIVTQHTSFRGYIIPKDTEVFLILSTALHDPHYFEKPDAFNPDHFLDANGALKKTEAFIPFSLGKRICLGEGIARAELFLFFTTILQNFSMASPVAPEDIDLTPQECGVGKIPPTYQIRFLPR

[19] = Tmax in Wistar rat at 10 mg/kg, po after 0.25 to 144 hrs by LC-MS/MS analysis; assay type: ADME, organism-based; conditions: in vivo
Rattus norvegicus [20] = experiment: Memory enhancement effect in time-delay induced Wistar rat model of amnesia assessed as exploration time for familiar object at 3 mg/kg, po administered as single dose after acquisition trial by novel object recognition test (reference value: 10.6 sec); assay type: functional
Rattus norvegicus [21] = experiment: Memory enhancement effect in scopolamine-induced Wistar rat model of amnesia assessed as increase in novel object discrimination index at 0.15 mg/kg, po administered as single dose and measured on day 9 by novel object recognition test (reference value: 0.21); assay type: functional
[22] = Half life in BALB/c mouse at 1 mg/kg, iv after 0.083 to 144 hrs by LC-MS/MS analysis; assay type: ADME, organism-based; conditions: in vivo
Rattus norvegicus [23] = experiment: Memory enhancement effect in scopolamine-induced Wistar rat model of amnesia assessed as increase in exploration time for novel object in retention trial at 0.15 mg/kg, po administered as single dose and measured on day 9 by novel object recognition test (reference value: 12.09 sec); assay type: functional
[24] = Unbound brain-to-plasma concentration ratio in Wistar rat at 10 mg/kg, po after 24 hrs by LC-MS/MS analysis; assay type: ADME, organism-based; conditions: read-out: K(p,uu,brain)

With `CCC(=O)c1sc(-c2ccc(Cl)cc2)c(C)c1-c1ccc(S(N)(=O)=O)cc1` as the molecule, how does the Kp uu at 8 h [1] read?
The Kp uu at 8 h was 0.93.

And the concentration at 8 h [2]?
The concentration at 8 h was 830 nM.

What about the “inhibition (INH)” value (Cytochrome P450 2A6) of the same molecule?
Its value is “Not Active”.

What about the Tmax [3] of the same molecule?
Its Tmax is 0.25 h.

What about the Time (Rattus norvegicus [4]) of the same molecule?
Its Time is 15.06 s.

And the Drug metabolism [5]?
Its Drug metabolism is 0.01 nmol/min/mg.

What about the fraction unbound at 16 h, 5 µM [6] of the same molecule?
The fraction unbound at 16 h, 5 µM was 0.0015.

And the clearance [7]?
The clearance was 3.6 mL/min/kg.

What about the Time (Rattus norvegicus [8]) of the same molecule?
Its Time is 10.49 s.

And the Time (Rattus norvegicus [9])?
The Time was 18.31 s.

And the concentration at 168 h [10]?
Its concentration at 168 h is 2130 nM.

And the concentration at 168 h [11]?
Its concentration at 168 h is 130 nM.

What about the half-life [12] of the same molecule?
The half-life was 88 h.

What about the Time (Rattus norvegicus [13]) of the same molecule?
The Time was 10.95 s.

And the Kp at 24 h [14]?
The Kp at 24 h was 8.85.

What about the Activity (Rattus norvegicus [15]) of the same molecule?
The Activity was 52.87%.

And the concentration at 24 h [16]?
The concentration at 24 h was 740 nM.

And the Time (Rattus norvegicus [17])?
The Time was 16.07 s.

What about the AUC(0-inf) [18] of the same molecule?
The AUC(0-inf) was 261 to 24100 ng·h/mL.

What about the “inhibition (INH)” value (Cytochrome P450 2B6) of the same molecule?
The value was “Not Active”.

What about the Tmax [19] of the same molecule?
Its Tmax is 5.2 h.

And the Time (Rattus norvegicus [20])?
Its Time is 5.9 s.

And the Activity_index (Rattus norvegicus [21])?
The Activity_index was 0.5.

And the half-life [22]?
The half-life was 14 h.

What about the Time (Rattus norvegicus [23]) of the same molecule?
Its Time is 12.8 s.

And the Kp uu at 24 h [24]?
The Kp uu at 24 h was 1.07.
